Bridge positions count the residues as written; N and C are the ends. Peptide text beside a SMILES is read from it.
How the values were obtained:
Assay in all cases: cell-based
[1] = molecular target: human Kv1.3 channel (Homo sapiens, UniProt P22001); type: cell-based
[2] = molecular target: human Kv1.1 (Homo sapiens, UniProt Q09470); set-up: expressed in transfected cells; host or cells: HEK293; details: Kv1.1 (IC50, pM)
[3] = molecular target: T1, human Kv1.3 (CHO) (Homo sapiens, UniProt P22001)
T1 construct: expressed in transfected cells; host or cells: CHO

[4] = molecular target: T2, human Kv1.1 (HEK293) (Homo sapiens, UniProt Q09470)
T2 construct: expressed in transfected cells; host or cells: HEK293
T2 sequence (Q09470 whole entry): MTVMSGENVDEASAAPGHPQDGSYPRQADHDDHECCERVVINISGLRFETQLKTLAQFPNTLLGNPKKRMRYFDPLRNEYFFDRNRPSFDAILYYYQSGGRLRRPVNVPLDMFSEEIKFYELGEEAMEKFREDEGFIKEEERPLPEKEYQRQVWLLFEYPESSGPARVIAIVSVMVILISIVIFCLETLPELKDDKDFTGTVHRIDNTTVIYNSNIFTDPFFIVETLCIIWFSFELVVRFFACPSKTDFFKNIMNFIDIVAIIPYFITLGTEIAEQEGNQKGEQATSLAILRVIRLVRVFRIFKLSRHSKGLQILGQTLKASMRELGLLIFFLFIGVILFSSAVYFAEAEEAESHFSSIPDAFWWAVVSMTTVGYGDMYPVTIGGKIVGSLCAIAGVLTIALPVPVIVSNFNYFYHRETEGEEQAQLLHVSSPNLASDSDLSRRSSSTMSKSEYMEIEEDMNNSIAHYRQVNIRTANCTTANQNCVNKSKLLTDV

T1 sequence (P22001 whole entry): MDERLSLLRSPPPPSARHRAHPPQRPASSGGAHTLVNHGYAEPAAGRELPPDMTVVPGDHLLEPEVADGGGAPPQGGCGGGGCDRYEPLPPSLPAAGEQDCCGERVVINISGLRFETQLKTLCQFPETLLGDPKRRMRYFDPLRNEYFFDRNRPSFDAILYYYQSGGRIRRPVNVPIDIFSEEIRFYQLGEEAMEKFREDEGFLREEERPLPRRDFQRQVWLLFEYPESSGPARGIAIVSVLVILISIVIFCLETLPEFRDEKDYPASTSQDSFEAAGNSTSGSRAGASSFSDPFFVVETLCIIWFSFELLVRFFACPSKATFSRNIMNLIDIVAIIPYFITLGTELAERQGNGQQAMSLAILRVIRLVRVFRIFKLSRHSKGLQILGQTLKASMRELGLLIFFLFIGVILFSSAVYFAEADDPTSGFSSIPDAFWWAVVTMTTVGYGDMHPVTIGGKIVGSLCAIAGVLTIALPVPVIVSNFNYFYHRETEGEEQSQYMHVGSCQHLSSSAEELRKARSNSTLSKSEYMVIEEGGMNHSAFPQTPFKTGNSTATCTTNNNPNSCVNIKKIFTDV
Sequence of human Kv1.1 (Q09470 whole entry): as the sequence (Q09470 whole entry) above
Sequence of human Kv1.3 channel (P22001 whole entry): as the sequence (P22001 whole entry) above

Compound | IC50 [1] [nM] | IC50 [2] [pM] | IC50 [3] [nM] | IC50 [4] [nM] | fold difference in Kv1.3 potency compared to Fc-L10-OSK1 [1] [fold]
CC[C@H](C)[C@@H]1NC(=O)[C@H](CCCCN)NC(=O)[C@@H](NC(=O)[C@H](CCCCN)NC(=O)[C@@H](NC(=O)[C@H](CC(N)=O)NC(=O)[C@@H](NC(=O)[C@@H](NC(=O)[C@@H](NC(=O)CN)C(C)C)[C@@H](C)CC)[C@@H](C)CC)C(C)C)CSSC[C@@H]2NC(=O)[C@H](CCCCN)NC(=O)CNC(=O)[C@H](Cc3ccccc3)NC(=O)[C@H](CCCNC(=N)N)NC(=O)[C@H](CCSC)NC(=O)CNC(=O)[C@H](C)NC(=O)[C@H](CCCCN)NC(=O)[C@H](CCCCN)NC(=O)[C@@H]3CSSC[C@@H](C(=O)N[C@H](C(=O)N4CCC[C@H]4C(=O)N[C@@H](CCCCN)C(=O)O)[C@@H](C)O)NC(=O)[C@H](C)NC(=O)[C@H](CSSC[C@H](NC(=O)[C@H](CCC(N)=O)NC(=O)[C@H](CCCNC(=N)N)NC(=O)[C@H](CO)NC1=O)C(=O)N[C@@H](CC(C)C)C(=O)N[C@@H](CCC(=O)O)C(=O)N1CCC[C@H]1C(=O)N3)NC(=O)[C@H](CCCCN)NC(=O)CNC(=O)[C@H](CC(N)=O)NC(=O)[C@H](CCSC)NC2=O [H34A] (H-GVIINVKCKISRQCLEPCKKAGMRFGKCMNGKCACTPK-OH; disulfide 8-28, 14-33, 18-35) | 0.016 | 12800 | 0.0194 | 0.368 | 
CC[C@H](C)[C@@H]1NC(=O)[C@H](CCCCN)NC(=O)[C@@H](NC(=O)[C@H](CCCCN)NC(=O)[C@@H](NC(=O)[C@H](CC(N)=O)NC(=O)[C@@H](NC(=O)[C@@H](NC(=O)[C@@H](NC(=O)CN)C(C)C)[C@@H](C)CC)[C@@H](C)CC)C(C)C)CSSC[C@@H]2NC(=O)[C@H](CCCCN)NC(=O)CNC(=O)[C@H](Cc3ccccc3)NC(=O)[C@H](CCCNC(=N)N)NC(=O)[C@H](CCSC)NC(=O)CNC(=O)[C@H](C)NC(=O)[C@H](CCCCN)NC(=O)[C@H](CCCCN)NC(=O)[C@@H]3CSSC[C@@H](C(=O)N[C@H](C(=O)N4CCC[C@H]4C(=O)N[C@@H](CCCCN)C(=O)O)[C@@H](C)O)NC(=O)[C@H](Cc4c[nH]cn4)NC(=O)[C@H](CSSC[C@H](NC(=O)[C@H](CCC(N)=O)NC(=O)[C@H](CCCNC(=N)N)NC(=O)[C@H](CO)NC1=O)C(=O)N[C@@H](CC(C)C)C(=O)N[C@@H](CCC(=O)O)C(=O)N1CCC[C@H]1C(=O)N3)NC(=O)[C@H](CCCCN)NC(=O)CNC(=O)[C@H](CC(N)=O)NC(=O)[C@H](C)NC2=O [M29A] (H-GVIINVKCKISRQCLEPCKKAGMRFGKCANGKCHCTPK-OH; disulfide 8-28, 14-33, 18-35) |  | 3470 | 0.0595 | > 3.33 | 
CC[C@H](C)[C@@H]1NC(=O)[C@H](CCCCN)NC(=O)[C@@H](NC(=O)[C@H](CCCCN)NC(=O)[C@@H](NC(=O)[C@H](CC(N)=O)NC(=O)[C@@H](NC(=O)[C@@H](NC(=O)[C@@H](NC(=O)CN)C(C)C)[C@@H](C)CC)[C@@H](C)CC)C(C)C)CSSC[C@@H]2NC(=O)[C@H](CCCCN)NC(=O)CNC(=O)[C@H](Cc3ccccc3)NC(=O)[C@H](CCCNC(=N)N)NC(=O)[C@H](CCSC)NC(=O)CNC(=O)[C@H](C)NC(=O)[C@H](CCCCN)NC(=O)[C@H](CCCCN)NC(=O)[C@@H]3CSSC[C@@H](C(=O)N[C@H](C(=O)N4CCC[C@H]4C(=O)N[C@@H](CCCCN)C(=O)O)[C@@H](C)O)NC(=O)[C@H](Cc4c[nH]cn4)NC(=O)[C@H](CSSC[C@H](NC(=O)[C@H](CCC(N)=O)NC(=O)[C@H](CCCNC(=N)N)NC(=O)[C@H](C)NC1=O)C(=O)N[C@@H](CC(C)C)C(=O)N[C@@H](CCC(=O)O)C(=O)N1CCC[C@H]1C(=O)N3)NC(=O)[C@H](CCCCN)NC(=O)CNC(=O)[C@H](CC(N)=O)NC(=O)[C@H](CCSC)NC2=O [S11A] (H-GVIINVKCKIARQCLEPCKKAGMRFGKCMNGKCHCTPK-OH; disulfide 8-28, 14-33, 18-35) |  |  | 0.0408 | 0.113 | 
CC[C@H](C)[C@@H]1NC(=O)[C@H](CCCCN)NC(=O)[C@@H](NC(=O)[C@H](CCCCN)NC(=O)[C@@H](NC(=O)[C@H](CC(N)=O)NC(=O)[C@@H](NC(=O)[C@@H](NC(=O)[C@@H](NC(=O)CN)C(C)C)[C@@H](C)CC)[C@@H](C)CC)C(C)C)CSSC[C@@H]2NC(=O)[C@H](CCCCN)NC(=O)CNC(=O)[C@H](Cc3ccccc3)NC(=O)[C@H](CCCNC(=N)N)NC(=O)[C@H](CCSC)NC(=O)CNC(=O)[C@H](C)NC(=O)[C@H](CCCCN)NC(=O)[C@H](CCCCN)NC(=O)[C@@H]3CSSC[C@@H](C(=O)N[C@@H](CCCNC(=N)N)C(=O)N4CCC[C@H]4C(=O)N[C@@H](CCCCN)C(=O)O)NC(=O)[C@H](Cc4c[nH]cn4)NC(=O)[C@H](CSSC[C@H](NC(=O)[C@H](CCC(N)=O)NC(=O)[C@H](CCCNC(=N)N)NC(=O)[C@H](CO)NC1=O)C(=O)N[C@@H](CC(C)C)C(=O)N[C@@H](CCC(=O)O)C(=O)N1CCC[C@H]1C(=O)N3)NC(=O)[C@H](CCCCN)NC(=O)CNC(=O)[C@H](CC(N)=O)NC(=O)[C@H](CCSC)NC2=O [T36R] (H-GVIINVKCKISRQCLEPCKKAGMRFGKCMNGKCHCRPK-OH; disulfide 8-28, 14-33, 18-35) |  |  | 1.31 | 0.0266 | 
CC[C@H](C)[C@@H]1NC(=O)[C@H](CCCCN)NC(=O)[C@@H](NC(=O)[C@H](CCCCN)NC(=O)[C@@H](NC(=O)[C@H](CC(N)=O)NC(=O)[C@@H](NC(=O)[C@@H](NC(=O)[C@H](CCC(=O)O)NC(=O)CN)[C@@H](C)CC)[C@@H](C)CC)C(C)C)CSSC[C@@H]2NC(=O)[C@H](CCCCN)NC(=O)CNC(=O)[C@H](Cc3ccccc3)NC(=O)[C@H](CCCNC(=N)N)NC(=O)[C@H](CCSC)NC(=O)CNC(=O)[C@H](C)NC(=O)[C@H](CCCCN)NC(=O)[C@H](CCCCN)NC(=O)[C@@H]3CSSC[C@@H](C(=O)N[C@H](C(=O)N4CCC[C@H]4C(=O)N[C@@H](CCCCN)C(=O)O)[C@@H](C)O)NC(=O)[C@H](Cc4c[nH]cn4)NC(=O)[C@H](CSSC[C@H](NC(=O)[C@H](CCC(N)=O)NC(=O)[C@H](CCCNC(=N)N)NC(=O)[C@H](CO)NC1=O)C(=O)N[C@@H](CC(C)C)C(=O)N[C@@H](CCC(=O)O)C(=O)N1CCC[C@H]1C(=O)N3)NC(=O)[C@H](CCCCN)NC(=O)CNC(=O)[C@H](CC(N)=O)NC(=O)[C@H](CCSC)NC2=O [V2E] (H-GEIINVKCKISRQCLEPCKKAGMRFGKCMNGKCHCTPK-OH; disulfide 8-28, 14-33, 18-35) |  |  | 0.0362 | 0.035 | 
CC[C@H](C)[C@@H]1NC(=O)[C@H](CCCCN)NC(=O)[C@@H](NC(=O)[C@H](CCCCN)NC(=O)[C@@H](NC(=O)[C@H](CC(N)=O)NC(=O)[C@@H](NC(=O)[C@@H](NC(=O)[C@H](CCCNC(=N)N)NC(=O)CN)[C@@H](C)CC)[C@@H](C)CC)C(C)C)CSSC[C@@H]2NC(=O)[C@H](CCCCN)NC(=O)CNC(=O)[C@H](Cc3ccccc3)NC(=O)[C@H](CCCNC(=N)N)NC(=O)[C@H](CCSC)NC(=O)CNC(=O)[C@H](C)NC(=O)[C@H](CCCCN)NC(=O)[C@H](CCCCN)NC(=O)[C@@H]3CSSC[C@@H](C(=O)N[C@H](C(=O)N4CCC[C@H]4C(=O)N[C@@H](CCCCN)C(=O)O)[C@@H](C)O)NC(=O)[C@H](Cc4c[nH]cn4)NC(=O)[C@H](CSSC[C@H](NC(=O)[C@H](CCC(N)=O)NC(=O)[C@H](CCCNC(=N)N)NC(=O)[C@H](CO)NC1=O)C(=O)N[C@@H](CC(C)C)C(=O)N[C@@H](CCC(=O)O)C(=O)N1CCC[C@H]1C(=O)N3)NC(=O)[C@H](CCCCN)NC(=O)CNC(=O)[C@H](CC(N)=O)NC(=O)[C@H](CCSC)NC2=O [V2R] (H-GRIINVKCKISRQCLEPCKKAGMRFGKCMNGKCHCTPK-OH; disulfide 8-28, 14-33, 18-35) |  |  | 0.133 | 0.0258 | 
CC[C@H](C)[C@@H]1NC(=O)[C@H](CCCCN)NC(=O)[C@@H](NC(=O)[C@H](CCCCN)NC(=O)[C@H](C)NC(=O)[C@H](CC(N)=O)NC(=O)[C@@H](NC(=O)[C@@H](NC(=O)[C@@H](NC(=O)CN)C(C)C)[C@@H](C)CC)[C@@H](C)CC)CSSC[C@@H]2NC(=O)[C@H](CCCCN)NC(=O)CNC(=O)[C@H](Cc3ccccc3)NC(=O)[C@H](CCCNC(=N)N)NC(=O)[C@H](CCSC)NC(=O)CNC(=O)[C@H](C)NC(=O)[C@H](CCCCN)NC(=O)[C@H](CCCCN)NC(=O)[C@@H]3CSSC[C@@H](C(=O)N[C@H](C(=O)N4CCC[C@H]4C(=O)N[C@@H](CCCCN)C(=O)O)[C@@H](C)O)NC(=O)[C@H](Cc4c[nH]cn4)NC(=O)[C@H](CSSC[C@H](NC(=O)[C@H](CCC(N)=O)NC(=O)[C@H](CCCNC(=N)N)NC(=O)[C@H](CO)NC1=O)C(=O)N[C@@H](CC(C)C)C(=O)N[C@@H](CCC(=O)O)C(=O)N1CCC[C@H]1C(=O)N3)NC(=O)[C@H](CCCCN)NC(=O)CNC(=O)[C@H](CC(N)=O)NC(=O)[C@H](CCSC)NC2=O [V6A] (H-GVIINAKCKISRQCLEPCKKAGMRFGKCMNGKCHCTPK-OH; disulfide 8-28, 14-33, 18-35) |  |  | 0.174 | 0.0128 | 
CC[C@H](C)[C@@H]1NC(=O)[C@H](CCCCN)NC(=O)[C@@H](NC(=O)[C@H](CCCCN)NC(=O)[C@H](CCC(=O)O)NC(=O)[C@H](CC(N)=O)NC(=O)[C@@H](NC(=O)[C@@H](NC(=O)[C@@H](NC(=O)CN)C(C)C)[C@@H](C)CC)[C@@H](C)CC)CSSC[C@@H]2NC(=O)[C@H](CCCCN)NC(=O)CNC(=O)[C@H](Cc3ccccc3)NC(=O)[C@H](CCCNC(=N)N)NC(=O)[C@H](CCSC)NC(=O)CNC(=O)[C@H](C)NC(=O)[C@H](CCCCN)NC(=O)[C@H](CCCCN)NC(=O)[C@@H]3CSSC[C@@H](C(=O)N[C@H](C(=O)N4CCC[C@H]4C(=O)N[C@@H](CCCCN)C(=O)O)[C@@H](C)O)NC(=O)[C@H](Cc4c[nH]cn4)NC(=O)[C@H](CSSC[C@H](NC(=O)[C@H](CCC(N)=O)NC(=O)[C@H](CCCNC(=N)N)NC(=O)[C@H](CO)NC1=O)C(=O)N[C@@H](CC(C)C)C(=O)N[C@@H](CCC(=O)O)C(=O)N1CCC[C@H]1C(=O)N3)NC(=O)[C@H](CCCCN)NC(=O)CNC(=O)[C@H](CC(N)=O)NC(=O)[C@H](CCSC)NC2=O [V6E] (H-GVIINEKCKISRQCLEPCKKAGMRFGKCMNGKCHCTPK-OH; disulfide 8-28, 14-33, 18-35) |  |  | 0.0177 | 0.00243 | 
Fc-L10-OSK1[K7S]: OSK1-peptibody with lysine to serine substitution at position 7 |  |  |  |  | 2

Source: patent US20090299044A1 (priority 2006, published 2009)
